The test system of series [1] is HEK293. Put plainly: Increase in calcium level in HEK293 cells at 20 uM by fura2/AM dye based single cell based plate reader analysis. It counts as functional. Conditions: Homo sapiens.
For series [2], the target named is T1, Transient receptor potential cation channel subfamily A member 1 (Homo sapiens, UniProt O75762). The experiment in a line: Activation of human TRPA1 expressed in HEK293 cells assessed as induction of outward current at 10 uM at -70 to +70 mV by whole cell patch clamp assay. It counts as cell-based. On the technique in general: Patch clamp records ionic current or voltage across a cell membrane.

Series [3] has as its target T1, Transient receptor potential cation channel subfamily A member 1. The experiment in a line: Activation of human TRPA1 expressed in HEK293 cells assessed as increase in calcium level at 20 uM by fura2/AM dye based single cell based plate reader analysis.
Series [4] has the same target. The experiment in a line: Activation of human TRPA1 expressed in HEK293 cells assessed as induction of inward current at 10 uM at -70 to +70 mV by whole cell patch clamp assay. It counts as cell-based.
For series [5] the target is unchanged. Put plainly: Activation of human TRPA1 expressed in HEK293 cells assessed as increase in calcium level at 20 uM in presence of TRPA1 channel blocker A-967079 by fura2/AM dye based single cell based plate reader analysis.
Series [6] has the same target. The experiment in a line: Activation of human TRPA1 expressed in HEK293 cells assessed as induction of inward current at 10 uM at -70 to +70 mV in presence of TRPA1 channel blocker A-967079 by whole cell patch clamp assay. The series is classed as cell-based.
Series [7] deals with HEK293. The experiment in a line: Increase in calcium level in HEK293 cells at 0.1 to 100 uM by fluo-4 dye based plate reader analysis. Particulars: Homo sapiens. It counts as functional, cell-based.
Series [8] concerns the target T1, Transient receptor potential cation channel subfamily A member 1. The experiment in a line: Activation of human TRPA1 expressed in HEK293 cells assessed as induction of outward current at 10 uM at -70 to +70 mV in presence of TRPA1 channel blocker A-967079 by whole cell patch clamp assay. It counts as cell-based.
For series [9] the target is unchanged. The experiment in a line: Activation of human TRPA1 expressed in HEK293 cells assessed as increase in calcium level by fluo-4 dye based plate reader analysis. The series is classed as cell-based.
The target is the same in series [10]. Put plainly: Activation of human TRPA1 expressed in HEK293 cells assessed as induction of current at 1 to 10 uM at +70 mV in presence of intracellular catalase by whole cell patch clamp assay. The series is classed as cell-based.
Series [11] in a line: Lipophilicity, logP of compound. Conditions: octanol/water.
In series [12] the target is T1, Transient receptor potential cation channel subfamily A member 1. The experiment in a line: Activation of human TRPA1 expressed in HEK293 cells assessed as induction of current at 1 uM at -70 to +70 mV by whole cell patch clamp assay. The series is classed as cell-based.
Another series deals with DRG neuron. Put plainly: Increase in calcium level in DRG neurons isolated from TRPA1 deficient mouse at 10 uM by fura2/AM dye based plate reader analysis. The series is classed as functional, cell-based.
Series [13] addresses T1, Transient receptor potential cation channel subfamily A member 1. Put plainly: Decrease in TRPA1 current amplitude in human TRPA1 expressed HEK293 cells at 10 uM at high voltage by whole cell patch clamp assay. It counts as cell-based.
For series [14], the target named is Transient receptor potential cation channel subfamily A member 1 (Mus musculus) (UniProt Q8BLA8). The experiment in a line: Activation of TRPA1 in wild type mouse DRG neurons assessed as increase in calcium level at 10 uM by fura2/AM dye based plate reader analysis relative to control.
Series [15] concerns the target T1, Transient receptor potential cation channel subfamily A member 1. The experiment in a line: Activation of human TRPA1 expressed in HEK293 cells assessed as induction of current at 1 to 10 uM at +70 mV in presence of extracellular catalase by whole cell patch clamp assay. The series is classed as cell-based.
For series [16] the target is unchanged. The experiment in a line: Activation of human TRPA1 expressed in HEK293 cells assessed as induction of current at 10 uM at -70 to +70 mV by whole cell patch clamp assay. The series is classed as cell-based.
Series [17] concerns the target Transient receptor potential cation channel subfamily A member 1 (Mus musculus) (UniProt Q8BLA8). Put plainly: Activation of TRPA1 in wild type mouse DRG neurons assessed as increase in calcium level at 10 uM treated after 10 uM Plumbagin pre-treatment by fura2/AM dye based plate reader analysis relative to control.

Activity calls are given as the source filed them. The rule behind the calls is not given here.

Chain of Transient receptor potential cation channel subfamily A member 1 (Mus musculus) (Q8BLA8 whole entry): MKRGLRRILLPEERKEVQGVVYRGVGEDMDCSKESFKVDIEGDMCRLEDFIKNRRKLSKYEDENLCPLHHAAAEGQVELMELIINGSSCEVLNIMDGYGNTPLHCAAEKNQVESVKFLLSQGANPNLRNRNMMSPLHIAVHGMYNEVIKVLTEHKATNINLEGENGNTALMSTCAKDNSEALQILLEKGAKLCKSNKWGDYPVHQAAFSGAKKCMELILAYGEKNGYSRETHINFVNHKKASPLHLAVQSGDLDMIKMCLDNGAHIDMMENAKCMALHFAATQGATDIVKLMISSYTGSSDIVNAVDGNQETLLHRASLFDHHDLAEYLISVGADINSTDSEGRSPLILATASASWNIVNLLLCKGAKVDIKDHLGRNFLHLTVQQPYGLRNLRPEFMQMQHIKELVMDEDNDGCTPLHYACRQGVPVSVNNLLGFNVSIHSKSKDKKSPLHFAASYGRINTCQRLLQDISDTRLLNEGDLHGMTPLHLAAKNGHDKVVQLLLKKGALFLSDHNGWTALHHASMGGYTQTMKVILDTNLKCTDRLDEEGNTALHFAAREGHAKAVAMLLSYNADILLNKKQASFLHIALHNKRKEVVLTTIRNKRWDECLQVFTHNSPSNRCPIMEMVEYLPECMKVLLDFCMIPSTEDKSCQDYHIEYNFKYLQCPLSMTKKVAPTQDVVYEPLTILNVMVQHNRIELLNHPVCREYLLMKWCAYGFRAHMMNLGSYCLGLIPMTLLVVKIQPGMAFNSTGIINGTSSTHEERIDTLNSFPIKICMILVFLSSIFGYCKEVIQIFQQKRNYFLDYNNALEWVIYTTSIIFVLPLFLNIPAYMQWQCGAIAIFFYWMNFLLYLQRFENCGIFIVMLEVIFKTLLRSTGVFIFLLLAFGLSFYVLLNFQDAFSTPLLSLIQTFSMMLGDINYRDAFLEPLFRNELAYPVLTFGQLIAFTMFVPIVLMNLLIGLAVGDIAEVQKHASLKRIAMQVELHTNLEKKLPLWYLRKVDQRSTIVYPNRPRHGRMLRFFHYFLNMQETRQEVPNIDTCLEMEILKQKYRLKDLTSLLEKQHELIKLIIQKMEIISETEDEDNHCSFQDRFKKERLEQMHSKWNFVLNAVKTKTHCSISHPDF
T1 sequence (O75762 whole entry): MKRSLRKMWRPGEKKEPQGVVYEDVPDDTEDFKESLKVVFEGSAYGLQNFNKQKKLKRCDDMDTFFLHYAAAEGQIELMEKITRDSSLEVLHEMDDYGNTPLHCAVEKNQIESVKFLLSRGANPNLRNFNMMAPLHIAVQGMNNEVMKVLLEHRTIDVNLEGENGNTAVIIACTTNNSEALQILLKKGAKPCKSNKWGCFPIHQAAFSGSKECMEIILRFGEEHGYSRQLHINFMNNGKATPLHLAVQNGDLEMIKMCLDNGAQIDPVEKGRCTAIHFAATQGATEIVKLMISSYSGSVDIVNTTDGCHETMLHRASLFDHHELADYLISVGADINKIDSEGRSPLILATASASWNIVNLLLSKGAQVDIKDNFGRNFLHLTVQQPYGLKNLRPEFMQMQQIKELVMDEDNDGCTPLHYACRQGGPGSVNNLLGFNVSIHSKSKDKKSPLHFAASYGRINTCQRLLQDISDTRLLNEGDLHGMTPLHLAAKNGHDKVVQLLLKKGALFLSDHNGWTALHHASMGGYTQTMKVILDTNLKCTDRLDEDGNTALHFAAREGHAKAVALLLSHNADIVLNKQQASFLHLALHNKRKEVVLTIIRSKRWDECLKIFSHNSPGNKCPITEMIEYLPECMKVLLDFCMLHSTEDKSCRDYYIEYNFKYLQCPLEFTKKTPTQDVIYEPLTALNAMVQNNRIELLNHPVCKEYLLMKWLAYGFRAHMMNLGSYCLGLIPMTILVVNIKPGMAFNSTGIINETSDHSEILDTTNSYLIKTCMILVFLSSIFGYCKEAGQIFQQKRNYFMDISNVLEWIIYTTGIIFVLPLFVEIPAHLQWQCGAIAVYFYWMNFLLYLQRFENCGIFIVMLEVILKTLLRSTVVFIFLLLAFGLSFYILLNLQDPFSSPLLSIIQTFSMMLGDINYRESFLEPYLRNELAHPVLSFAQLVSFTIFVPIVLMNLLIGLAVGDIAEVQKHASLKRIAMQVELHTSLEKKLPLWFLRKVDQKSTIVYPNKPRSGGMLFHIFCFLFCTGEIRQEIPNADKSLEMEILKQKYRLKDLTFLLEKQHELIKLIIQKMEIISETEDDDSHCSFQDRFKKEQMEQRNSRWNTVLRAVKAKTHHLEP

For `O=C1C=CC(=O)c2c(O)cccc21` [JUGLONE], the result (with HEK293 [1]; in [5]; in series [6]; in the series with HEK293 [7]; in series [8]) was inactive. In addition, the result in series [2], in series [3] and in [4] was Active. For the same compound, the EC50 (as a rule, the concentration that produces a half-maximal response) in [9] turned out to be 1700 nM.

`CC1=CC(=O)c2c(O)cccc2C1=O` [PLUMBAGIN]: the Activity in [10] is 93.5 pA/pF; in [14], 50%; in series [15] it was 65 pA/pF. Also, the result (in the series on HEK293 [1]; in series [12]; in the series with DRG neuron; in [5]) was inactive. In addition, in [11], the log partition coefficient (logP) (commonly the decadic logarithm of the partition coefficient of the neutral form, usually between octanol and water) was 3.69. The result in [3] and in [13] was Active. For the same compound, the half-maximal effective concentration (EC50) in series [9] stood at 460 nM.

As for `COc1cc(/C=C/C=O)ccc1OCC=C(C)C` [BOROPINAL], the outcome (in the series on HEK293 [1]; in series [5]; in series [14]; in series [16]) was inactive. For the same compound, the result in series [3] was Active. In addition, the EC50 in series [9] was 9800 nM.

As to `COc1cc(/C=C/C=O)ccc1OC/C=C(\C)CCC=C(C)C`, the result (in the series with HEK293 [1]; in [5]) was inactive. The outcome in [3] was Active.

Take `O=C1C=C(O)C(=O)c2ccccc21`: in series [3], the outcome was Active.

With `CC(C)=CCC/C(C)=C/COc1ccc2ccc(=O)oc2c1`, the result in series [3] was Active.

For the compound `C=CCN=C=S`, the outcome in [2], in [3] and in series [4] was Active. Also, the outcome (with DRG neuron; in series [17]) was inactive.

As to `COc1cc(/C=C/C(=O)O)ccc1OC/C=C(\C)CCC=C(C)C`, the outcome in series [3] was Active.

These data come from ChEMBL document CHEMBL4425086 (J Nat Prod, 2016).
